This note sets out measurements from patent US8497279B2, “Treatment for discoid lupus” (Rigel Pharmaceuticals, Inc., priority 2011, dated 2013).

The subject of one test is primary human T-cells. The test is described as follows: Primary human T-cell proliferation assay stimulated with IL-2 (CellTiter-Glo). Conditions: read-out: Example 4 IC50. The class given is cell-based. The source says: In this assay, primary human T-cells derived from peripheral blood and pre-activated through stimulation of the T-cell receptor and CD28, proliferate in culture in response to the cytokine Interleukin-2 (IL-2). This proliferative response is dependent on the activation of JAK1 and JAK3 tyrosine kinases, which phosphorylate and activate the transcription factor Stat-5. […] A reduction in cell proliferation compared to control conditions is indicative of inhibition of the JAK kinase pathway. An exemplary assay of this type is described in greater detail below.
Primary human T-cells derived from peripheral blood and pre-activated through stimulation of the T-cell receptor and CD28, proliferate in vitro in response to the cytokine Interleukin-2 (IL-2). This proliferative response is dependent on the activation of JAK-1 and JAK-3 tyrosine kinases, which phosphorylate and activate the transcription factor Stat-5.
Human primary T cells were prepared as follows. […] The lymphocytes at the serum: ficoll interface were recovered and washed twice with 5 volumes of PBS. […] The primary T-cells were stimulated for 3-4 days, then transferred to a fresh flask and maintained in RPMI with 10% FBS and 40 U/mL IL-2.
Primary T-cells were washed twice with PBS to remove the IL-2 and resuspended in Yssel's medium at 2×10^6 cells/mL. 50 μL of cell suspension containing 80 U/mL IL-2 was added to each well of a flat bottom 96 well black plate. For the unstimulated control, IL-2 was omitted from the last column on the plate. […] 50 μL of 2× compound was added per well in duplicate and the cells were allowed to proliferate for 72 hours at 37° C.
Proliferation was measured using CellTiter-Glo® Luminescent Cell Viability Assay (Promega), which determines the number of viable cells in culture based on quantitation of the ATP present, as an indicator of metabolically active cells. The substrate was thawed and allowed to come to room temperature. After mixing the Cell Titer-Glo reagent and diluent together, 100 μL was added to each well. […]
A general note: In ATP-based viability assays light output follows the ATP content of the culture.

The subject of another test is JAK1 and JAK3 kinases. Briefly: Ramos B-cell line stimulated with IL-4, CD23 upregulation (FACS). The class given is cell-based, human. How it is done: One means of assaying for JAK inhibition is detection of the effect of compounds I and II on the upregulation of downstream gene products. In the Ramos/IL4 assay, B-cells are stimulated with the cytokine Interleukin-4 (IL-4) leading to the activation of the JAK/Stat pathway through phosphorylation of the JAK family kinases, JAK1 and JAK3, which in turn phosphorylate and activate the transcription factor Stat-6. […] Twenty to 24 hours post stimulation, cells are stained for upregulation of CD23 and analyzed using flow cytometry (FACS). […] An exemplary assay of this type is described in greater detail below. B-cells stimulated with cytokine Interleukin-4 (IL-4) activate the JAK/Stat pathway through phosphorylation of the JAK family kinases, JAK-1 and JAK-3, which in turn phosphorylate and activate the transcription factor Stat-6. […] To study the effect of inhibitors on the JAK family kinases, human Ramos B cells are stimulated with human IL-4. The Ramos B-cell line was acquired from [NT] No. CRL-1596). The cells were cultured in RPMI 1640 (Cellgro, MediaTech, Inc., Herndon, Va., Cat No. 10-040-CM) with 10% fetal bovine serum (FBS), heat inactivated (JRH Biosciences, Inc, Lenexa, Kans., Cat No. 12106-500M) according to ATCC propagation protocol. Cells were maintained at a density of 3.5×10^5. The day before the experiment, Ramos B-cells were diluted to 3.5×10^5 cells/mL to ensure that they were in a logarithmic growth phase. Cells were spun down and suspended in RPMI with 5% serum. 5×10^4 cells were used per point in a 96-well tissue culture plate. Cells were pre-incubated with compound or DMSO (Sigma-Aldrich, St. Louis, Mo., Cat No. D2650) vehicle control for 1 hour in a 37° C. incubator. Cells were then stimulated with IL-4 (Peprotech Inc., Rocky Hill, N.J., Cat No. 200-04) for a final concentration of 50 units/mL for 20-24 hours. Cells were then spun down and stained with anti-CD23-PE(BD Pharmingen, San Diego, Calif., Cat No. 555711) and analyzed by FACS. Detection was performed using a BD LSR I System Flow Cytometer, purchased from Becton Dickinson Biosciences of San Jose, Calif.

A further test has as its system JAK/Stat pathway. Briefly: U937 IFNγ ICAM1 FACS assay. It is filed as cell-based, human. Conditions: U937 cells, IFNγ 10 ng/mL, 18-24 hours, ICAM-1 expression; read-out: Example 6 IC50. As for the experimental part:
U937 human monocytic cells up-regulate ICAM-1 (CD54) surface expression in response to a variety of different stimuli. Therefore, using ICAM-1 expression as readout, compound effects on different signaling pathways can be assessed in the same cell type. IFNγ up-regulates ICAM-1 through activation of the JAK/Stat pathway. In this example, the up-regulation of ICAM-1 by IFNγ was assessed.
U937 cells were grown in 10% RPMI. The cells were then plated at a concentration of 100,000 cells per 160 μL in 96 well flat bottom plates. […] Then 4 μL of test compound was transferred to 76 μL of 10% RPMI resulting in a 10× solution (100 μM test compound, 5% DMSO). For control wells, 4 μL of DMSO was diluted into 76 μL 10% RPMI.
The assay was performed in duplicate with 8 points (8 3-fold dilution concentrations from […]) and with 4 wells of DMSO only (control wells) under stimulated conditions and 4 wells of DMSO only under unstimulated conditions.
The diluted compound plate was mixed 2× using a multimek (Beckman Coulter of Brea, Calif.) and then 20 μL of the diluted compounds was transferred to the 96 well plate containing 160 μL of cells, which were then mixed again twice at low speeds. The cells and compounds were then pre-incubated for 30 minutes at 37° C. with 5% CO2.
The 10× stimulation mix was made by preparing a 100 ng/mL solution of human IFNγ in 10% RPMI. […] The cells were kept under conditions for stimulation for 18-24 hours at 37° C. with 5% CO2.
The cells were transferred to a 96 well round bottom plate for staining and then kept on ice for the duration of the staining procedure. Cells were spun down at 1000 rpm for 5 minutes at 4° C., following which the supernatant was removed. Following removal of the supernatant, 1 μL APC conjugated mouse anti-human ICAM-1 antibody was added per 100 μL FACS buffer. The cells were then incubated on ice in the dark for 30 minutes. Following incubation, 150 μL of FACS buffer was added and the cells were centrifuged at 1000 rpm for 5 minutes at 4° C., following which the supernatant was removed. […]
Both % live cells and ICAM-1 expression was analyzed. […]
In general terms: A flow cytometer gives signals particle by particle.

For the next test, the system named is TNFα. The test is described as follows: Other cytokine signaling (TNFα). It is filed as cell-based.
Another test concerns IL-1β. Briefly: Other cytokine signaling (IL-1β). It is filed as cell-based.
For a further test, the system named is cell proliferation. The test is described as follows: Cell proliferation (broad inhibition). The class given is cell-based.
A further test deals with T1, JAK3 (Homo sapiens, UniProt P52333).
T1 construct: endogenous in cells
T1 sequence (P52333 1-1124): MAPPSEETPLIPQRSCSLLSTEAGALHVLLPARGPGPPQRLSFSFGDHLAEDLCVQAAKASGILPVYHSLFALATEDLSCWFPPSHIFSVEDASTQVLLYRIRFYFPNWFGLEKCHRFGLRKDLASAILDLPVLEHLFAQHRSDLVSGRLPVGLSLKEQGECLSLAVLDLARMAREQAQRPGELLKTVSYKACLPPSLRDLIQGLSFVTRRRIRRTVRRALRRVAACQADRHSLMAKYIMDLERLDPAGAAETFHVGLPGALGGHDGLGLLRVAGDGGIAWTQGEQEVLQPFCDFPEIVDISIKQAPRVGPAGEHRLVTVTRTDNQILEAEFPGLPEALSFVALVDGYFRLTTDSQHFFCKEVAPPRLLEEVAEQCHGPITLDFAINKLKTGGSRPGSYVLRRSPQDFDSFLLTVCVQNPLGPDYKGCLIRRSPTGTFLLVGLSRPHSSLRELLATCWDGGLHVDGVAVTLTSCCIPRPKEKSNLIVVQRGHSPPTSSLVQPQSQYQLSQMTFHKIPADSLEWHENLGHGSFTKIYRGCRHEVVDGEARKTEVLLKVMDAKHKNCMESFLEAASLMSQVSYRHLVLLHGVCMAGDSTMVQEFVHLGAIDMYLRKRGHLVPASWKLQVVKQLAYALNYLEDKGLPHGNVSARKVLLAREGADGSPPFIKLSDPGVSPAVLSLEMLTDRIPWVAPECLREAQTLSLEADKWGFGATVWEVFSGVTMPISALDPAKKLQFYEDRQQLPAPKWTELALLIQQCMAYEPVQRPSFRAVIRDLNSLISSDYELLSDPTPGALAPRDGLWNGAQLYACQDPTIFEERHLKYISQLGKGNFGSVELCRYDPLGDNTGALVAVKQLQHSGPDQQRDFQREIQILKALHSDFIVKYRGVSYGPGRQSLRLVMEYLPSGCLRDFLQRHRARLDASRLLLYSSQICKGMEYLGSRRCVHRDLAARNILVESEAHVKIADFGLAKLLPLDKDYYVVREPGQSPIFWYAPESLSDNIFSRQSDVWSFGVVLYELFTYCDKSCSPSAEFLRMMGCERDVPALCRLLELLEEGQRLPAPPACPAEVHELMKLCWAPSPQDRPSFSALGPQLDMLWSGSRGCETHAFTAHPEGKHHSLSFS
Briefly: Human cell based assay against JAK3. Conditions: human cell based assays; read-out: half maximal effective concentration (EC50) against JAK3.

Test [1] has as its system receptor tyrosine kinase (RTK). Briefly: Receptor tyrosine kinase (RTK) signaling. It is filed as cell-based.
The target of the next test is T2, Syk (Homo sapiens, UniProt P43405).
T2 construct: endogenous in cells
Briefly: Human cell based assay against Syk. Conditions: human cell based assays; read-out: half maximal effective concentration (EC50) against Syk.

Counter-ions that a name gives are not always drawn. Like-named read-outs stand apart in the source and are kept apart here.

Consider `C#CCOc1ccc(Nc2nc(Nc3ccc(C)c(S(=O)(=O)NC(=O)CC)c3)ncc2F)cc1` [VII, 5-Fluoro-N2-[4-methyl-3-(N-propionylaminosulfonyl)phenyl]-N4-[4-(2-propynyloxy)phenyl]-2,4-pyrimidinediamine Choline Salt], for which the IC50 was 53 nM in the test with primary human T-cells (primary human T-cells, IL-2, 72 hours, ATP readout); 22 nM in the test on JAK1 and JAK3 kinases (Ramos B cells, IL-4 50 units/mL, 20-24 hours, CD23 staining, read-out: Example 3 IC50); 140 nM in the test on JAK/Stat pathway.
As to `C#CCOc1ccc(Nc2nc(Nc3ccc(C)c(S(N)(=O)=O)c3)ncc2F)cc1` [Compound I, N2-(3-Aminosulfonyl-4-methylphenyl)-5-fluoro-N-4-[4-(prop-2-ynyloxy)phenyl]-2,4-pyrimidinediamine], in the test on TNFα, the “activity on other cytokine signaling (TNFα)” value is given as “little or no activity”. Further, the “activity on other cytokine signaling (IL-1β)” value in the test with IL-1β is listed as “little or no activity”. Also, the “inhibition of cell proliferation” value with cell proliferation is given as “not a broad inhibitor of cell proliferation”. Moreover, the EC50 is roughly 180 nM on JAK3 and roughly 140 nM at Syk. Besides, the “activity on receptor tyrosine kinase (RTK) signaling” value in test [1] is reported as “little or no activity”.
For `C#CCOc1ccc(Nc2nc(Nc3ccc(C)c(S(=O)(=O)NC(=O)CC)c3)ncc2F)cc1` [V, 5-Fluoro-N2-[4-methyl-3-(N-propionylaminosulfonyl)phenyl]-N-4-[4-(2-propynyloxy)phenyl]-2,4-pyrimidinediamine Calcium Salt], the IC50 with JAK1 and JAK3 kinases (Ramos B cells, IL-4 50 units/mL, 20-24 hours, CD23 staining, Calcium Salt, read-out: Example 3 IC50) amounted to 373 nM; in the test with JAK/Stat pathway, 25100 nM.
As to `C#CCOc1ccc(Nc2nc(Nc3ccc(C)c(S(=O)(=O)NC(=O)CC)c3)ncc2F)cc1` [IV, 5-Fluoro-N2-[4-methyl-3-(N-propionylaminosulfonyl)phenyl]-N4-[4-(2-propynyloxy)phenyl]-2,4-pyrimidinediamine Potassium Salt], the IC50 came to 5560 nM in the test on primary human T-cells (Homo sapiens, T-cell, 72 h); 2320 nM in the test with JAK1 and JAK3 kinases (Homo sapiens, Ramos, read-out: Example 3 IC50, Ramos B cells, IL-4 50 units/mL, 20-24 hours, CD23 staining).
With `C#CCOc1ccc(Nc2nc(Nc3ccc(C)c(S(=O)(=O)NC(=O)CC)c3)ncc2F)cc1` [II, 5-fluoro-N2-(4-methyl-3-propionylaminosulfonylphenyl)-N-4-[4-(prop-2-ynyloxy)phenyl]-2,4-pyrimidinediamine], the IC50 in the test with JAK1 and JAK3 kinases (Homo sapiens, Ramos B cells, IL-4 50 units/mL, 20-24 hours, CD23 staining, read-out: Example 3 IC50) worked out at 9660 nM.
For `C#CCOc1ccc(Nc2nc(Nc3ccc(C)c(S(=O)(=O)NC(=O)CC)c3)ncc2F)cc1` [III, 5-fluoro-N2-(4-methyl-3-propionylaminosulfonylphenyl)-N-4-[4-(prop-2-ynyloxy)phenyl]-2,4-pyrimidinediamine mono-sodium salt], the IC50 in the test with JAK1 and JAK3 kinases (Ramos B cells, IL-4 50 units/mL, 20-24 hours, CD23 staining, mono-sodium salt, read-out: Example 3 IC50) was determined as 3970 nM.
